The record followed here is patent US11786534B2 (TAIHO PHARMACEUTICAL CO., LTD., priority 2019, dated 2023).

Like-named read-outs stand apart in the source and are kept apart here.

One assay concerns the target Ba/F3-EGFR (WT) (Homo sapiens, UniProt P00533). Put plainly: Growth inhibition of cell line expressing wild-type EGFR. It counts as cell-based, mouse. As to conditions: read-out: BaF3_EGFR (WT) IC50 value. From the text: (§1) Test for inhibitory activity against the growth of cell lines expressing wild-type and mutated EGFRs (in vitro)
(§2) (1) Mouse cell line Ba/F3-EGFR (d746-750/T790M/C797S) transfected with and stably expressing EGFR (d746-750/T790M/C797S), mouse cell Ba/F3-EGFR (L858R/T790M/C797S) transfected with and stably expressing EGFR (L858R/T790M/C797S), and mouse cell line Ba/F3-EGFR (WT) transfected with and stably expressing wild-type EGFR were each suspended in RPMI-1640 cell culture medium (RPMI-1640, 10% FBS, 100 unit/ml penicillin, 0.1 mg/ml streptomycin). In the case of the mouse cell line Ba/F3-EGFR (WT), RPMI-1640 cell culture medium containing EGF at a final concentration of 50 ng/ml was used to suspend this cell line. It should be noted that the mouse cell line Ba/F3-EGFR (d746-750/T790M/C797S) transfected with and stably expressing EGFR (d746-750/T790M/C797S), the mouse cell line Ba/F3-EGFR (L858R/T790M/C797S) transfected with and stably expressing EGFR (L858R/T790M/C797S) and the mouse cell line Ba/F3-EGFR (WT) transfected with and stably expressing wild-type EGFR were prepared by using nucleotide sequences encoding the proteins of SEQ ID NOs: 1 and 2 in accordance with Test Example 1 in WO2018/079310, These cell suspensions were seeded in wells of 96-well flat -bottomed plates. The compounds of the present invention were dissolved in DMSO, and serial dilutions of these test compounds were prepared with DMSO (1000-fold of the final concentration). Each test compound solution in DMSO or DMSO alone was diluted with RPMI-1640 cell culture medium for each cell line, and this dilution was added to wells of the cell culture plate such that the final concentration of DMSO was 0.1%, followed by culture at 37° C. for 3 days in a 5% carbon dioxide gas-containing incubator. Before and after addition of each test compound solution in DMSO, the number of cells was counted using the CellTiter-Glo® system (Promega) on the basis of the protocol recommended by Promega.
(§3) In each cell line, the rate of cell growth inhibition was calculated according to the equation shown below in wells to which each test compound was added at different concentrations. Moreover, the inhibition rate at each concentration was plotted for each test compound, and the concentration of each test compound required to give 50% cell survival rate, i.e., IC50 (nM) was determined by curve fitting software XLfit (IDBS).
(§4) Cell survival rate (%)=T/C×100
(§5) T: emission intensity in a well cultured for 3 days after addition of a test compound solution
(§6) C: emission intensity in a well cultured for 3 days after addition of DMSO
(§7) In accordance with the same procedures as shown in Test Example 2, the compounds of the present invention were tested for their inhibitory activity against the growth of the cell hoes expressing wild-type and mutated EGFRs.

Assay [1] concerns the target Ba/F3-EGFR (L858R/T790M/C797S) (Homo sapiens, UniProt P00533, T790M/C797S/L858R, cells depend on it). As to the kind of experiment: Growth inhibition of cell line expressing EGFR (L858R/T790M/C797S). As to conditions: read-out: BaF3_EGFR (L858R/T790M/C797S) IC50 value. It counts as cell-based, mouse.
Excerpt: as §1, §2, §3, §4, §5, §6, §7

The target of assay [2] is T1, human EGFR (d746-750/T790M/C797S) (Homo sapiens, UniProt P00533, C797S/DEL746-750/T790M).
T1 construct: made in house; host or cells: Sf9 insect cells, baculovirus
T1 sequence (P00533 with tags, fused parts or gaps DEL746-750/T790M/C797S): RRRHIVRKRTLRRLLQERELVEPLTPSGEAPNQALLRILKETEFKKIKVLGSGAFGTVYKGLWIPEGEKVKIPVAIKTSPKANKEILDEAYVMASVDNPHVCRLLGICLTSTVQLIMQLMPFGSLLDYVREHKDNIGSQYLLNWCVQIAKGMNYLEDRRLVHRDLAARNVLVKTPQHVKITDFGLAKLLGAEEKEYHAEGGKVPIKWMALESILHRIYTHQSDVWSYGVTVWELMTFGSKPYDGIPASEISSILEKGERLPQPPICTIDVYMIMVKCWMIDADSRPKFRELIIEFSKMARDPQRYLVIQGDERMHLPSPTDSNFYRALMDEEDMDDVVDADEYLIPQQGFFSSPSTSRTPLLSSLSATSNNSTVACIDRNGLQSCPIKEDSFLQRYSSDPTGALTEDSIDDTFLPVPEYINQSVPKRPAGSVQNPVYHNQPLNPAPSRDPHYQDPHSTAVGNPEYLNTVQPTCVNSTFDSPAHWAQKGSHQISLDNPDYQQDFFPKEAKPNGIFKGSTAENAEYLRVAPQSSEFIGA
Put plainly: Inhibitory activity against EGFR (d746-750/T790M/C797S) kinase. As to conditions: Test Example 1, Table 2; ATP 6 μM, 25° C., 120 minutes. The format is biochemical. In short, it runs like this: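 GST-fused cytoplasmic domain of human EGFR d746-750/T790M/C797S (Sf9-expressed) was incubated with 250 nM biotinylated peptide, 6 μM ATP, 10 mM MgCl2 and 10 mM MnCl2 (2.5% DMSO) for 120 min at 25 °C. After an EDTA stop, phosphotyrosine was detected by Eu-PT66/SureLight APC-SA TR-FRET (665/620 nm, excitation 337 nm). Background wells received EDTA before enzyme.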

In assay [3] the target is Ba/F3-EGFR (d746-750/T790M/C797S) (Homo sapiens, UniProt P00533, DEL746-750/T790M/C797S, cells depend on it). As to the kind of experiment: Growth inhibition of cell line expressing EGFR (d746-750/T790M/C797S). It counts as cell-based, mouse. As to conditions: read-out: BaF3_EGFR (d746-750/T790M/C797S) IC50 value.
Chain of Ba/F3-EGFR (d746-750/T790M/C797S) (P00533 with tags, fused parts or gaps DEL746-750/T790M/C797S): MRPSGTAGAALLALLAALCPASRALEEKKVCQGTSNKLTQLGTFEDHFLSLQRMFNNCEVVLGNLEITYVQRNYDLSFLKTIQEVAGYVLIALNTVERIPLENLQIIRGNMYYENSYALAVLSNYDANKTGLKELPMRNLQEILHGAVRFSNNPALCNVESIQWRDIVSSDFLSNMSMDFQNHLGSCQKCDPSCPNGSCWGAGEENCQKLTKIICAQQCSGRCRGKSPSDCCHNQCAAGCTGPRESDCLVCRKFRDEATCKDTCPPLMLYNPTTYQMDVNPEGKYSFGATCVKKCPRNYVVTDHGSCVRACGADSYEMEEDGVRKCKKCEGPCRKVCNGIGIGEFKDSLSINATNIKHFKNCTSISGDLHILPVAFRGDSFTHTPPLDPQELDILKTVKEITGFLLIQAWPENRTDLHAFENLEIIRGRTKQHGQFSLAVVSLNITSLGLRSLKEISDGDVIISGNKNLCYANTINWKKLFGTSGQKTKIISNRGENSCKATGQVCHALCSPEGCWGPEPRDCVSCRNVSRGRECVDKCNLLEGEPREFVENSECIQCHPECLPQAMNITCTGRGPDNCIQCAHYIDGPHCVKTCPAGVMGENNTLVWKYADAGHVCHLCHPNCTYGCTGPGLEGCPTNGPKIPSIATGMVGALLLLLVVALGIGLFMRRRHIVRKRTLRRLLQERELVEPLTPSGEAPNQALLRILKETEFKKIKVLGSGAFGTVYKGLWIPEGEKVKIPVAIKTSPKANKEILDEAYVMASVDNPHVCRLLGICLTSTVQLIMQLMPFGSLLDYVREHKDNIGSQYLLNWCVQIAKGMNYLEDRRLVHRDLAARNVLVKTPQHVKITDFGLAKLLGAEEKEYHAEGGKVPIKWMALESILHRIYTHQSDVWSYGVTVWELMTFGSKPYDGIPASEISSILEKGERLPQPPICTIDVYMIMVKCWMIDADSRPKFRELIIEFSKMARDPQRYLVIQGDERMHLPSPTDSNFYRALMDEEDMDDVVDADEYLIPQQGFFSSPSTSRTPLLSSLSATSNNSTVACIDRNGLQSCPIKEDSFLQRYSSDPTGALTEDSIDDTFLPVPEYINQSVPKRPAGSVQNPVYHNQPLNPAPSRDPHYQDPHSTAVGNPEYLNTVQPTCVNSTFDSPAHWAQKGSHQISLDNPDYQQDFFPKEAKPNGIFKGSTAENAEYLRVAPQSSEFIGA
Excerpt: as §1, §2, §3, §4, §5, §6, §7

Where [4] appears, read: Test Example 2, Table 7, culture 3 days, EGF 50 ng/ml, CellTiter-Glo.
[5] abbreviates: Test Example 2, Table 7, culture 3 days, CellTiter-Glo.
The mark [6] stands for this setting: Test Example 4, Table 13, same procedures as Test Example 2.

Chain of Ba/F3-EGFR (WT) (P00533 whole entry, stated change not applied): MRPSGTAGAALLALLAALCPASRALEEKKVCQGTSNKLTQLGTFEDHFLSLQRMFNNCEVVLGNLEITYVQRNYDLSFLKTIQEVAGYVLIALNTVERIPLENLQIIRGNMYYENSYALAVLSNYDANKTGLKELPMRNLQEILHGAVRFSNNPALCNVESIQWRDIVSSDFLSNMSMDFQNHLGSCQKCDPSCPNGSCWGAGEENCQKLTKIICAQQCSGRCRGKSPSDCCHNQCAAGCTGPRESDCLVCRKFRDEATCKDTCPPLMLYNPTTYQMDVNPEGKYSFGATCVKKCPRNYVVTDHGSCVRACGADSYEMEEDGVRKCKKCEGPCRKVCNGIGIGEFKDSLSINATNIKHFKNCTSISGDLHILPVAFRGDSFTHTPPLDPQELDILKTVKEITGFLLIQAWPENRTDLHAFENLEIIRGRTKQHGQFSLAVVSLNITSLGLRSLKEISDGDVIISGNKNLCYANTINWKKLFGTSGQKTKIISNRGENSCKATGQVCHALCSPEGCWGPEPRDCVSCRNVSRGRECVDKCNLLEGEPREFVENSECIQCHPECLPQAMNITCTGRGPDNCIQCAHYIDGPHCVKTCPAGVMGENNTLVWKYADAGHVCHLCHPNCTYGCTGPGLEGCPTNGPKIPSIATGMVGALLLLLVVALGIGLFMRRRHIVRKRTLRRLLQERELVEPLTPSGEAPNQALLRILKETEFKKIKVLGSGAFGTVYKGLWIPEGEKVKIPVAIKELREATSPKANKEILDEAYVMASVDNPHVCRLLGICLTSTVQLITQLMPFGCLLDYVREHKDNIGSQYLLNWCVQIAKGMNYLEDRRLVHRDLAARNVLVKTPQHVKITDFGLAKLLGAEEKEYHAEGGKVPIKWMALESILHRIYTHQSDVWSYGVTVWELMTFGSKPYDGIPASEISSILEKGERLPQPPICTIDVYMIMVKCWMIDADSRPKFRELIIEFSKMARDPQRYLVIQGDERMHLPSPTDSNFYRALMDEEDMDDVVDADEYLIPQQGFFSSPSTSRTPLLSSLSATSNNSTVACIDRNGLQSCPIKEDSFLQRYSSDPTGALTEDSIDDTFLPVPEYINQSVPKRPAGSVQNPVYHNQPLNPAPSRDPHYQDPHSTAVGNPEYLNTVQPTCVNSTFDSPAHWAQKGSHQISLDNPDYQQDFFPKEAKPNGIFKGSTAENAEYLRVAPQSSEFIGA
Chain of Ba/F3-EGFR (L858R/T790M/C797S) (P00533 whole entry T790M/C797S/L858R): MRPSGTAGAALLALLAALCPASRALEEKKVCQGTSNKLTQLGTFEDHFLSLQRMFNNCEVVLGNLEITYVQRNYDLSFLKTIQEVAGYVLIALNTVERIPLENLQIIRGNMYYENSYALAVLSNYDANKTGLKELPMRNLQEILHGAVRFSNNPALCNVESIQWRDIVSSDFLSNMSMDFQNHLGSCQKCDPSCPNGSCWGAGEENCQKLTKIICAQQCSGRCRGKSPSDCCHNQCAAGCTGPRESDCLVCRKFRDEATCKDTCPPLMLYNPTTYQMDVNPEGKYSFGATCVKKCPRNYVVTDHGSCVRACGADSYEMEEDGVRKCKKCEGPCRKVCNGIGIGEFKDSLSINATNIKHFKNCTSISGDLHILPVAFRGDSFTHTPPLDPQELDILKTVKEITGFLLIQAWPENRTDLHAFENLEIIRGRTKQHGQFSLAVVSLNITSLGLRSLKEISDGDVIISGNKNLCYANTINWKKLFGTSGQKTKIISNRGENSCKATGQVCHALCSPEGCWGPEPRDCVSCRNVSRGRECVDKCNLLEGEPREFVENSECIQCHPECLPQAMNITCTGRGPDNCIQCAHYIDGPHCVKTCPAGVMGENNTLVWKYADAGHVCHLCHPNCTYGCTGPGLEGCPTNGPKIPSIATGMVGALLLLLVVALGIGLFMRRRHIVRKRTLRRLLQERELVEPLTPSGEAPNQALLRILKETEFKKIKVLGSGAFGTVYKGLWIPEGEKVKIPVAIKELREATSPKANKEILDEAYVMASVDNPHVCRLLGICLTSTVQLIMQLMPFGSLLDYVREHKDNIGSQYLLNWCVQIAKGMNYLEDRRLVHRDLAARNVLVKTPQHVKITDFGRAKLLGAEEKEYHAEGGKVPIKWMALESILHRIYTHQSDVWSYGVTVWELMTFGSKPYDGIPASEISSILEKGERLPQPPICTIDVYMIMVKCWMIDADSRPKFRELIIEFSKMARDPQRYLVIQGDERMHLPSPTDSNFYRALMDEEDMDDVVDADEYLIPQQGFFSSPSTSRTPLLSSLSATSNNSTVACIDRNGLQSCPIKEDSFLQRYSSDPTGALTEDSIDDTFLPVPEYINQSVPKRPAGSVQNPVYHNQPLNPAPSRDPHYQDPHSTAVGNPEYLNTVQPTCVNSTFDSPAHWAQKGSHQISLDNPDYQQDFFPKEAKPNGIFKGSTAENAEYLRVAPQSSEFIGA

As to `C=CC(=O)N1CC[C@@H](n2cc(-c3cnc4ccccc4c3)c3c(N)ncnc32)C1` [Comparative Example A, (R)-1-(3(4-Amino-5-(quinolin-3-yl)-7H-pyrrolo[2,3-d]pyrimidin-7-yl)pyrrolidin-1-yl) -prop-2-en-1-one, reference compound], the GI50 was determined as 2460 nM at Ba/F3-EGFR (WT) (setting [4]), 2260 nM in assay [1] (setting [5]) and 3660 nM in assay [3] (setting [5]). This compound also had an IC50 in assay [2] of 142 nM.
In the same order, the values of `C#Cc1c(-c2cnc3ccccc3c2)c2c(N)ncnc2n1[C@@H]1CCN(C(=O)C=C)C1` [Comparative Example B, (R)-1-(3-(4-Amino-6-ethynyl-5-(quinolin-3-yl)-7H-pyrrolo[2,3-d]pyrimidin-7-yl) -pyrrolidin-1-yl)-prop-2-en-1-one, reference compound] are 1050 nM, 3590 nM, 1080 nM and 26 nM.
With `C#Cc1c(-c2cnc3ccccc3c2)c2c(N)ncnc2n1C12CCC(NC(=O)c3ccccc3)(CC1)C2` [Example 1, N-(4-(4-Amino-6-ethynyl-5-(quinolin-3-yl)-7H-pyrrolo[2,3-d]pyrimidin-7-yl)bicyclo-[2.2.1]heptan-1-yl)benzamide], the GI50 on Ba/F3-EGFR (WT) (setting [6]) is 3490 nM; in assay [1] (setting [6]), 887 nM; in assay [3] (setting [6]) it was 98 nM. Also, in assay [2], the IC50 was less than 0.3 nM.
Take `C#Cc1c(-c2cnc3ccccc3c2)c2c(N)ncnc2n1C12CCC(NC(=O)c3cncnc3)(CC1)C2` [Example 2, N-(4-(4-Amino-6-ethynyl-5-(quinolin-3-yl)-7H-pyrrolo[2,3-d]pyrimidin-7-yl)bicyclo-[2.2.1]heptan-1-yl)pyrimidine-5-carboxamide]: the GI50 came out at 2650 nM on Ba/F3-EGFR (WT) (setting [4]), 185 nM in assay [1] (setting [5]) and 20 nM in assay [3] (setting [5]). The IC50 in assay [2] is less than 0.3 nM.
In the same order, the values of `C#Cc1c(-c2cnc3ccccc3c2)c2c(N)ncnc2n1C12CCC(NC(=O)c3ccnnc3)(CC1)C2` [Example 3, N-(4-(4-Amino-6-ethynyl-5-(quinolin-3-yl)-7H-pyrrolo[2,3-d]pyrimidin-7-yl)bicyclo-[2.2.1]heptan-1-yl)pyridazine-4-carboxamide] are 3330 nM, 529 nM, 56 nM and less than 0.3 nM.
On to `C#Cc1c(-c2cnc3ccccc3c2)c2c(N)ncnc2n1C12CCC(N3CCOCC3)(CC1)C2` [Example 9, 6-Ethynyl-7-(4-morpholinobicyclo[2.2.1]heptan-1-yl)-5-(quinolin-3-yl)-7H-pyrrolo[2,3-d]pyrimidine-4-amine], for which the results for the GI50 (on Ba/F3-EGFR (WT) (setting [6]); in assay [1] (setting [6]); in assay [3] (setting [6])) were more than 2000 nM, 592 nM and 59 nM, respectively. The same compound returned an IC50 in assay [2] of less than 0.3 nM.
As for `C#Cc1c(-c2cnc3ccccc3c2)c2c(N)ncnc2n1C12CCC(CNC(=O)c3ccnn3C)(CC1)C2` [Example 13, N-((4-(4-Amino-6-ethynyl-5-(quinolin-3-yl)-7H-pyrrolo[2,3-d]pyrimidin-7-yl)bicyclo-[2.2.1]heptan-1-yl)methyl)-1-methyl-1H-pyrazole-5-carboxamide], the GI50 was determined as 3600 nM on Ba/F3-EGFR (WT) (setting [4]), 910 nM in assay [1] (setting [5]) and 239 nM in assay [3] (setting [5]). The IC50 in assay [2] is less than 0.3 nM.
Turning to `C#Cc1c(-c2cnc3ccccc3c2)c2c(N)ncnc2n1C12CCC(CNC(=O)c3cnc(C)cn3)(CC1)C2` [Example 14, N-((4-(4-Amino-6-ethynyl-5-(quinolin-3-yl)-7H-pyrrolo[2,3-d]pyrimidin-7-yl)bicyclo-[2.2.1]heptan-1-yl)methyl)-5-methylpyrazine-2-carboxamide], the GI50 on Ba/F3-EGFR (WT) (setting [4]) stood at 3500 nM; in assay [1] (setting [5]), 952 nM; in assay [3] (setting [5]), 204 nM. Moreover, in assay [2], the IC50 is less than 0.3 nM.
In the case of `C#Cc1c(-c2cnc3ccccc3c2)c2c(N)ncnc2n1C12CCC(NC(=O)c3ccc4ncnn4c3)(CC1)C2` [Example 16, N-(4-(4-Amino-6-ethynyl-5-(quinolin-3-yl)-7H-pyrrolo[2,3-d]pyrimidin-7-yl)bicyclo-[2.2.1]heptan-1-yl)-[1.2.4]triazolo[1,5-a]pyrimidin-6-carboxamide], the GI50 worked out at 1920 nM on Ba/F3-EGFR (WT) (setting [6]), 283 nM in assay [1] (setting [6]) and 32 nM in assay [3] (setting [6]). This compound also gave an IC50 in assay [2] of less than 0.3 nM.
Regarding `C#Cc1c(-c2cnc3ccccc3c2)c2c(N)ncnc2n1C12CCC(NC(=O)c3cnns3)(CC1)C2` [Example 18, N-(4-(4-Amino-6-ethynyl-5-(quinolin-3-yl)-7H-pyrrolo[2,3-d]pyrimidin-7-yl)bicyclo-[2.2.1]heptan-1-yl)-1,2,3-thiadiazole-5-carboxamide], the GI50 at Ba/F3-EGFR (WT) (setting [6]) is 2480 nM; in assay [1] (setting [6]), 1270 nM; in assay [3] (setting [6]), 124 nM. Further, in assay [2], the IC50 is less than 0.3 nM.
In the same order, the values of `C#Cc1c(-c2cnc3ccccc3c2)c2c(N)ncnc2n1C12CCC(NC(=O)c3ccnn3C3CC3)(CC1)C2` [Example 20, N-(4-(4-Amino-6-ethynyl-5-(quinolin-3-yl)-7H-pyrrolo[2,3-d]pyrimidin-7-yl)bicyclo-[2.2.1]heptan-1-yl)-1-cyclopropyl-1H-pyrazole-5-carboxamide] are 2650 nM, 245 nM, 31 nM and less than 0.3 nM.
For the compound `C#Cc1c(-c2cnc3ccccc3c2)c2c(N)ncnc2n1C12CCC(NC(=O)c3nccn3C)(CC1)C2` [Example 23, N-(4-(4-Amino-6-ethynyl-5-(quinolin-3-yl)-7H-pyrrolo[2,3-d]pyrimidin-7-yl)bicyclo-[2.2.1]heptan-1-yl)-1-methyl-1H-imidazole-2-carboxamide], the figures for the GI50 (on Ba/F3-EGFR (WT) (setting [6]); in assay [1] (setting [6]); in assay [3] (setting [6])) were 3190 nM, 649 nM and 31 nM, respectively. Further, the IC50 in assay [2] is less than 0.3 nM.
Turning to `C#Cc1c(-c2cnc3ccccc3c2)c2c(N)ncnc2n1C12CCC(NC(=O)c3ccnn3C)(CC1)C2` [Example 24, N-(4-(4-Amino-6-ethynyl-5-(quinolin-3-yl)-7H-pyrrolo[2,3-d]pyrimidin-7-yl)bicyclo-[2.2.1]heptan-1-yl)-1-methyl-1H-pyrazole-5-carboxamide], the GI50 was 3790 nM at Ba/F3-EGFR (WT) (setting [4]), 403 nM in assay [1] (setting [5]) and 34 nM in assay [3] (setting [5]). The same compound returned an IC50 in assay [2] of less than 0.3 nM.
With `C#Cc1c(-c2cnc3ccccc3c2)c2c(N)ncnc2n1C12CCC(NC(=O)C(F)F)(CC1)C2` [Example 27, N-(4-(4-Amino-6-ethynyl-5-(quinolin-3-yl)-7H-pyrrolo[2,3-d]pyrimidin-7-yl)bicyclo-[2.2.1]heptan-1-yl)-2,2-difluoroacetamide], the GI50 is more than 2000 nM on Ba/F3-EGFR (WT) (setting [6]), 754 nM in assay [1] (setting [6]) and 110 nM in assay [3] (setting [6]). The IC50 in assay [2] was less than 0.3 nM.
